From publication PMC7156612, “Olinciguat, an Oral sGC Stimulator, Exhibits Diverse Pharmacology Across Preclinical Models of Cardiovascular, Metabolic, Renal, and Inflammatory Disease” (Frontiers in Pharmacology, 2020)

Test system: vascular smooth muscle cells (VSMC) from rat aorta
Experiment: Rat aorta vascular smooth muscle cell proliferation (3H-thymidine incorporation)
Type: cell-based
Conditions: Rattus norvegicus, VSMC
Experimental: We explored the concentration response of olinciguat, tadalafil, and olinciguat in the presence of 1 μM tadalafil on rat aorta vascular smooth muscle proliferation, Tadalafil was used because it is a once-daily PDE5 inhibitor that, like the three-times-daily PDE5 inhibitor sildenafil, is approved for treatment of PAH and ED. Vascular smooth muscle cells (VSMC) from rat aorta (Lonza, R-ASM-580) were plated into a 96-well plate at 15,000 cells per well in DMEM:F12 containing 20% FBS and GA-1000 ([Gentamicin, Amphotericin B], Lonza, CC-40863) for 24 h at 37°C. Medium was removed and cells were washed once with 100 μl DMEM:F12 before adding 100 μl of DMEM:F12 and incubating for 24 h to induce quiescence. Cells were then cultured for 24 h in DMEM:F12 supplemented with 5% FBS, in the presence of test articles (vehicle, olinciguat, tadalafil) with 10 µM DETA. In the last 6 h, 0.2 μCi of ^3H-thymidine (American Radiolabeled Chemicals, ART 0178A) was added to each well to measure DNA synthesis by thymidine incorporation. Cells were washed once with HBSS and then trypsinized and transferred into FB filter plates (Millipore, MADVNOB). A rapid-filtration technique using a filtration apparatus (Millipore, MAVM0960R) with vacuum aspiration was used to harvest and rinse labeled cells (6× with 0.2 ml of chilled water). The radioactivity bound to the filters was counted with 80 µl of liquid scintillant (PerkinElmer, UltraGold MV, 6013159) in a scintillation counter (Perkin Elmer Microbeta instrument).
In the vascular smooth muscle cell proliferation experiment, a comparison between the IC50's for olinciguat alone vs oliniciguat in the presence of 1 µM tadalafil was performed by a two-tailed t-test using Log EC50 best fit values and SEs determined from a four-parameter nonlinear curve fit, assuming n=60 degrees of freedom.

**Q.** `NC(=O)[C@](O)(CNc1nc(-c2cc(-c3ccon3)n(Cc3ccccc3F)n2)ncc1F)C(F)(F)F` [olinciguat, (R)-3,3,3-trifluoro-2-(((5-fluoro-2-(1-(2-fluorobenzyl)-5-(isoxazol-3-yl)-1H-pyrazol-3-yl)pyrimidin-4-yl)amino)methyl)-2-hydroxypropanamide] was tested. Which IC50 (5% FBS, 10 µM DETA, 3H-thymidine incorporation, 95% CI 22.4 to 39 nM, read-out: IC50, VSMC proliferation, olinciguat alone) did it give?
**A.** 29.6 nM

**Q.** And the EC50 (Table 2 summary, olinciguat alone, read-out: Rat vascular smooth muscle proliferation EC50, olinciguat concentration (range = 95% CI))?
**A.** 22.4 to 39 nM
